Test results taken from ChEMBL document CHEMBL1201862, “PubChem BioAssay data set” (2004).
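Five compound concentrations were applied to cells in 96-well plates for 48 hours; endpoints were derived by simple linear interpolation of the resulting dose-response curve. Abbreviation: GI50, concentration required for 50% inhibition of growth.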 The source made the active and inactive calls. No stated cut-off is given here; in the data, active = GI50 up to about 1.1 µM and inactive = higher.

Columns and labels:
Test in all cases: growth of human tumour cells (NCI), 48 h
786-0 = tested on: 786-0
A498 = tested on: A498
A549 = tested on: A549
ACHN = tested on: ACHN
BT-549 = tested on: BT-549
CAKI-1 = tested on: CAKI-1
CCRF-CEM = tested on: CCRF-CEM
COLO 205 = tested on: COLO 205
DU-145 = tested on: DU-145
EKVX = tested on: EKVX
HCC 2998 = tested on: HCC 2998
HCT-116 = tested on: HCT-116
HCT-15 = tested on: HCT-15
HL-60 = tested on: HL-60
HOP-62 = tested on: HOP-62
HT-29 = tested on: HT-29
Hs-578T = tested on: Hs-578T
IGROV-1 = tested on: IGROV-1
K562 = tested on: K562
KM12 = tested on: KM12
LOX IMVI = tested on: LOX IMVI
M14 = tested on: M14
MCF7 = tested on: MCF7
MDA-MB-231 = tested on: MDA-MB-231
MDA-MB-435 = tested on: MDA-MB-435
MDA-N = tested on: MDA-N
MOLT-4 = tested on: MOLT-4
Malme-3M = tested on: Malme-3M
NCI-H226 = tested on: NCI-H226
NCI-H23 = tested on: NCI-H23
NCI-H460 = tested on: NCI-H460
NCI-H522 = tested on: NCI-H522
NCI/ADR-RES = tested on: NCI/ADR-RES
OVCAR-3 = tested on: OVCAR-3
OVCAR-4 = tested on: OVCAR-4
OVCAR-5 = tested on: OVCAR-5
OVCAR-8 = tested on: OVCAR-8
PC-3 = tested on: PC-3
RPMI-8226 = tested on: RPMI-8226
SF-268 = tested on: SF-268
SF-295 = tested on: SF-295
SF-539 = tested on: SF-539
SK-MEL-28 = tested on: SK-MEL-28
SK-MEL-2 = tested on: SK-MEL-2
SK-MEL-5 = tested on: SK-MEL-5
SK-OV-3 = tested on: SK-OV-3
SN12C = tested on: SN12C
SNB-19 = tested on: SNB-19
SNB-75 = tested on: SNB-75
SR = tested on: SR
SW-620 = tested on: SW-620
T47D = tested on: T47D
TK-10 = tested on: TK-10
U-251 = tested on: U-251
UACC-62 = tested on: UACC-62
UO-31 = tested on: UO-31

For O=C(c1ccccc1Br)C(F)(F)F, the GI50 (786-0) was > 100 µM (inactive), the GI50 (A498) was > 100 µM (inactive) and the GI50 (A549) was > 100 µM (inactive). The GI50 (ACHN) was > 100 µM (inactive), the GI50 (BT-549) was > 100 µM (inactive) and the GI50 (CAKI-1) was > 100 µM (inactive). For the same compound, the GI50 (CCRF-CEM) was > 100 µM (inactive), the GI50 (COLO 205) was 88.9 µM (inactive) and the GI50 (DU-145) was > 100 µM (inactive). The GI50 (EKVX) was > 100 µM (inactive), the GI50 (HCC 2998) was > 100 µM (inactive) and the GI50 (HCT-116) was > 100 µM (inactive). For the same compound, the GI50 (HCT-15) was greater than 100 µM, the GI50 (HL-60) was > 100 µM (inactive) and the GI50 (HOP-62) was > 100 µM (inactive). For the same compound, the GI50 (HT-29) was > 100 µM (inactive), the GI50 (Hs-578T) was > 100 µM (inactive) and the GI50 (IGROV-1) was > 100 µM (inactive). For the same compound, the GI50 (K562) was > 100 µM (inactive), the GI50 (KM12) was > 100 µM (inactive) and the GI50 (LOX IMVI) was > 100 µM (inactive). For the same compound, the GI50 (M14) was > 100 µM (inactive), the GI50 (MCF7) was > 100 µM (inactive) and the GI50 (MDA-MB-231) was > 100 µM (inactive). The GI50 (MDA-MB-435) was > 100 µM (inactive), the GI50 (MDA-N) was > 100 µM (inactive) and the GI50 (MOLT-4) was > 100 µM (inactive). The GI50 (Malme-3M) was > 100 µM (inactive), the GI50 (NCI-H226) was > 100 µM (inactive) and the GI50 (NCI-H23) was > 100 µM (inactive). For the same compound, the GI50 (NCI-H460) was > 100 µM (inactive), the GI50 (NCI-H522) was > 100 µM (inactive) and the GI50 (NCI/ADR-RES) was > 100 µM (inactive). For the same compound, the GI50 (OVCAR-3) was > 100 µM (inactive), the GI50 (OVCAR-4) was > 100 µM (inactive) and the GI50 (OVCAR-5) was > 100 µM (inactive). For the same compound, the GI50 (OVCAR-8) was > 100 µM (inactive), the GI50 (PC-3) was > 100 µM (inactive) and the GI50 (RPMI-8226) was > 100 µM (inactive). The GI50 (SF-268) was > 100 µM (inactive), the GI50 (SF-295) was > 100 µM (inactive) and the GI50 (SF-539) was > 100 µM (inactive). For the same compound, the GI50 (SK-MEL-28) was > 100 µM (inactive), the GI50 (SK-MEL-2) was > 10 µM (inactive) and the GI50 (SK-MEL-5) was > 100 µM (inactive). For the same compound, the GI50 (SK-OV-3) was > 100 µM (inactive), the GI50 (SN12C) was > 100 µM (inactive) and the GI50 (SNB-19) was > 100 µM (inactive). The GI50 (SNB-75) was > 100 µM (inactive), the GI50 (SR) was > 100 µM (inactive) and the GI50 (SW-620) was > 100 µM (inactive). The GI50 (T47D) was 48.5 µM (inactive), the GI50 (TK-10) was > 100 µM (inactive) and the GI50 (U-251) was > 100 µM (inactive). The GI50 (UACC-62) was > 100 µM (inactive) and the GI50 (UO-31) was > 100 µM (inactive).
